Measured values published in the Kinase Knowledgebase extract (Sharma et al. 2016).

Biological target: MAPK14 (human) (UniProt Q16539)
Experiment: Inhibition of MAPK14 Kinase Activity

Chain of MAPK14 (human) (Q16539 whole entry, looked up): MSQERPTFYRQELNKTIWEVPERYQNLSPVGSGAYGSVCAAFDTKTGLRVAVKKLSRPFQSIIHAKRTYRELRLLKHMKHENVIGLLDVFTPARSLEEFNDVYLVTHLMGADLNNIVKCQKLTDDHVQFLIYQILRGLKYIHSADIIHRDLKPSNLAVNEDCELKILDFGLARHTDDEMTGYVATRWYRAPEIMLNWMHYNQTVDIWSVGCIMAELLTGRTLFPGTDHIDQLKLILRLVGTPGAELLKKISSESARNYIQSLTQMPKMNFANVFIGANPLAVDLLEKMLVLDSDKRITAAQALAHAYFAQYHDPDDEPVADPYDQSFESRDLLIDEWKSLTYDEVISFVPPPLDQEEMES

Row | SMILES | IC50
1 | CC(=O)NCC(=O)N1CCC(c2[nH]nc(-c3ccc(F)cc3)c2-c2nc(C(=O)NC(C)C)cs2)CC1 | ≤ 1 µM
2 | COc1cc(C=CC(=O)N2CCN(Cc3nc(-c4ccc(F)cc4)c(-c4nc(C(=O)NC(C)C)cs4)o3)CC2)ccc1O | ≤ 1 µM
3 | CC(C)NC(=O)c1csc(-c2oc(CNC(=O)CC#N)nc2-c2ccc(F)cc2)n1 | ≤ 1 µM
4 | CC(C)NC(=O)c1csc(-c2c(-c3ccc(F)cc3)noc2CNCC#N)n1 | ≤ 1 µM
5 | CC(C)NC(=O)c1csc(-c2c(-c3ccc(F)cc3)noc2CNCCN2CCCC2)n1 | ≤ 1 µM
6 | Cc1nc(-c2ccc(F)cc2)c(-c2nc(C(=O)NCCCNC(=O)OC(C)(C)C)cs2)s1 | ≤ 1 µM
7 | CC(C)NC(=O)c1csc(-c2oc(CNC(=O)c3ccc(C(F)(F)F)cc3[N+](=O)[O-])nc2-c2ccc(F)cc2)n1 | ≤ 1 µM
8 | Cc1nc(-c2ccc(F)cc2)c(-c2nc(C(=O)Nc3ccc4c(c3)OCCO4)cs2)s1 | ≤ 1 µM
9 | COc1ccncc1NC(=O)c1csc(-c2sc(C)nc2-c2ccc(F)cc2)n1 | ≤ 1 µM
10 | Cc1nc(-c2ccc(F)cc2)c(-c2nc(C(=O)Nc3ccc4c(c3)OCO4)cs2)s1 | ≤ 1 µM
11 | CC(=O)Nc1ccc(NC(=O)c2csc(-c3sc(C)nc3-c3ccc(F)cc3)n2)cn1 | ≤ 1 µM
12 | CC(C)NC(=O)c1csc(-c2oc(CNC(=O)C3CCCCC3)nc2-c2ccc(F)cc2)n1 | ≤ 1 µM
13 | COc1ccc(OC)c(CCNC(=O)c2csc(-c3sc(C)nc3-c3ccc(F)cc3)n2)c1 | ≤ 1 µM
14 | CC(C)NC(=O)c1csc(-c2oc(CNC(=O)C=Cc3ccc(Cl)cc3)nc2-c2ccc(F)cc2)n1 | ≤ 1 µM
15 | Cc1[nH]nc(-c2ccc(F)cc2)c1-c1nc(C(=O)NCc2cccnc2)cs1 | ≤ 1 µM
16 | Cc1onc(-c2ccc(Cl)cc2)c1-c1ccn(C(=O)NCC(C)C)n1 | ≤ 1 µM
17 | CC(C)NC(=O)c1csc(-c2oc(CN3CCN(C(=O)C4CCCN4C(=O)OC(C)(C)C)CC3)nc2-c2ccc(F)cc2)n1 (centres undefined) | ≤ 1 µM
18 | CC(C)NC(=O)c1csc(-c2oc(CNC(=O)c3cc4ccccc4s3)nc2-c2ccc(F)cc2)n1 | ≤ 1 µM
19 | CC(C)NC(=O)c1csc(-c2c(-c3ccc(F)cc3)n[nH]c2C2CCN(C(=O)c3ccccc3)CC2)n1 | ≤ 1 µM
20 | Cc1ccc(S(=O)(=O)NCCNCc2nc(-c3ccc(F)cc3)c(-c3nc(C(=O)NC(C)C)cs3)o2)cc1 | ≤ 1 µM
21 | CCNC(=O)c1csc(-c2sc(C)nc2-c2ccc(F)cc2)n1 | ≤ 1 µM
22 | Cc1nc(-c2ccc(F)cc2)c(-c2nc(C(=O)NCc3cccc(F)c3)cs2)s1 | ≤ 1 µM
23 | Cc1nc(-c2ccc(F)cc2)c(-c2nc(C(=O)NCc3ccncc3)cs2)s1 | ≤ 1 µM
24 | CC(=O)c1ccccc1C(=O)N1CCN(Cc2nc(-c3ccc(F)cc3)c(-c3nc(C(=O)NC(C)C)cs3)o2)CC1 | ≤ 1 µM
25 | CC1=NN(c2ccc(C(=O)NCc3nc(-c4ccc(F)cc4)c(-c4nc(C(=O)NC(C)C)cs4)o3)cc2)C(=O)C1 | ≤ 1 µM
26 | CCCCCCCC(=O)NCc1nc(-c2ccc(F)cc2)c(-c2nc(C(=O)NC(C)C)cs2)o1 | ≤ 1 µM
27 | CC(C)NC(=O)c1csc(-c2oc(CNCc3ccccc3OC(F)(F)F)nc2-c2ccc(F)cc2)n1 | ≤ 1 µM
28 | Cc1cccc(CCC(=O)N2CCN(Cc3nc(-c4ccc(F)cc4)c(-c4nc(C(=O)NC(C)C)cs4)o3)CC2)c1 | ≤ 1 µM
29 | COCCNC(=O)c1csc(-c2sc(C)nc2-c2ccc(F)cc2)n1 | ≤ 1 µM
